Test results from PMC4445146 (European journal of medicinal chemistry, 2014).

Columns and labels:
Mcl-1/Bim = Mcl-1/Bim (Homo sapiens, UniProt Q07820); assay: ELISA, disruption of Mcl-1/Bim binding; details: for IC50: read-out: Mcl-1/Bim IC50, ELISA, average ± SEM, n ≥ 3; for fold more potent than 1 against Mcl-1/Bim: ELISA IC50 relative to (±)-marinopyrrole A (1)
Bcl-xL/Bim = Bcl-xL/Bim (Homo sapiens, UniProt Q07817); assay: ELISA, disruption of Bcl-xL/Bim binding; details: for IC50: read-out: Bcl-xL/Bim IC50, ELISA, average ± SEM, n ≥ 3; for selectivity for Bcl-xL over Mcl-1: ratio of ELISA IC50 values; for fold more potent than 1 against Bcl-xL/Bim: ELISA IC50 relative to (±)-marinopyrrole A (1)
[1] = system: MDA-MB-468 breast cancer cells; assay type: cell-based, human; details: MDA-MB-468 cells; for decrease of Mcl-1 levels and induction of apoptosis (caspase 3 activation): 3 μM, western blot; for decrease of Mcl-1 levels and caspase 3 cleavage: concentrations as high as 10 μM (data not shown)

Sequence of Bcl-xL/Bim (Q07817 whole entry): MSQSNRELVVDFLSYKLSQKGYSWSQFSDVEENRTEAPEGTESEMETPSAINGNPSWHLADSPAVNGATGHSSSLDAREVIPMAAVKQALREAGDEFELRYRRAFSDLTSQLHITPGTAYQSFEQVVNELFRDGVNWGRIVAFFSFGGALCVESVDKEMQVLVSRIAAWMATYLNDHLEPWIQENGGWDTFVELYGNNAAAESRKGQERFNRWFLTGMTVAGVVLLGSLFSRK
Sequence of Mcl-1/Bim (Q07820 whole entry): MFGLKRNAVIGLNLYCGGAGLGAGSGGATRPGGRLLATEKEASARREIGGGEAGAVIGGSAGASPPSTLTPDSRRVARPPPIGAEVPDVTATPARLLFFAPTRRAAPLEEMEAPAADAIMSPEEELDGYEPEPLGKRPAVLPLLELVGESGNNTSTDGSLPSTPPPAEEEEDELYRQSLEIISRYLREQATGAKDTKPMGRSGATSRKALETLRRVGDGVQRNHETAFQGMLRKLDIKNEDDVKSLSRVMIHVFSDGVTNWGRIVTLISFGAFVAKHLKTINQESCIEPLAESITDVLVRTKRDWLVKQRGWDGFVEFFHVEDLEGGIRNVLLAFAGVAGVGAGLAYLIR

Row | Molecule | IC50 (Mcl-1/Bim) [µM] | decrease of Mcl-1 levels and induction of apoptosis (caspase 3 activation) [1] | also measured
1 | O=C(O)Cn1cc(-c2ccc(C(=O)c3[nH]c(Cl)c(Cl)c3-n3c(C(=O)c4ccc(-c5cn(CC(=O)O)nn5)cc4O)cc(Cl)c3Cl)c(O)c2)nn1 [compound 45, 2,2′-(4,4′-((4,4′,5,5′-Tetrachloro-1′H-1,3′-bipyrrole-2,2′-dicarbonyl)bis(3-hydroxy-4,1-phenylene))bis(1H-1,2,3-triazole-4,1-diyl))diacetic acid] | 16.5 ± 1.9 |  | 
2 | Cc1cc(O)c(C(=O)c2[nH]c(Cl)c(Cl)c2-n2c(C(=O)c3cc(Cl)c(C)cc3O)cc(Cl)c2Cl)cc1Cl [compound 24, (4,4′,5,5′-Tetrachloro-1′H-1,3′-bipyrrole-2,2′-diyl)bis((5-chloro-2-hydroxy-4-methylphenyl)methanone)] | 2.6 ± 0.6 |  | IC50 (Bcl-xL/Bim): 2.5 ± 0.4 µM
3 | O=C(c1ccc(-c2cn(-c3ccccc3)nn2)cc1O)c1[nH]c(Cl)c(Cl)c1-n1c(C(=O)c2ccc(-c3cn(-c4ccccc4)nn3)cc2O)cc(Cl)c1Cl [compound 40] |  | little activity in intact cells | selectivity for Bcl-xL over Mcl-1 (Bcl-xL/Bim): 2 fold
4 | CCOC(=O)Cn1cc(-c2cc(O)c(C(=O)c3[nH]c(Cl)c(Cl)c3-n3c(C(=O)c4cc(Cl)c(-c5cn(CC(=O)OCC)nn5)cc4O)cc(Cl)c3Cl)cc2Cl)nn1 [compound 36, Diethyl 2,2′-(4,4′-((4,4′,5,5′-tetrachloro-1′H-1,3′-bipyrrole-2,2′-dicarbonyl)bis(2-chloro-5-hydroxy-4,1-phenylene))bis(1H-1,2,3-triazole-4,1-diyl))diacetate] | 7.8 ± 1.5 |  | 
5 | Cn1c(Cl)c(Cl)c(-n2c(C(=O)c3ccccc3O)cc(Cl)c2Cl)c1C(=O)c1ccccc1O [compound 54, (4,4′,5,5′-tetrachloro-1′-methyl-1′H-[1,3′-bipyrrole]-2,2′-diyl)bis((2-hydroxyphenyl)methanone)] |  |  | selectivity for Bcl-xL over Mcl-1 (Bcl-xL/Bim): selectivity for Bcl-xL/Bim over Mcl-/Bim
6 | O=C(O)Cn1cc(-c2cc(O)c(C(=O)c3[nH]c(Cl)c(Cl)c3-n3c(C(=O)c4cc(Cl)c(-c5cn(CC(=O)O)nn5)cc4O)cc(Cl)c3Cl)cc2Cl)nn1 [compound 38, 2,2′-(4,4′-((4,4′,5,5′-Tetrachloro-1′H-1,3′-bipyrrole-2,2′-dicarbonyl)bis(2-chloro-5-hydroxy-4,1-phenylene))bis(1H-1,2,3-triazole-4,1-diyl))diacetic acid] | 5.2 ± 0.8 |  | decrease of Mcl-1 levels and caspase 3 cleavage [1]: inactive at decreasing Mcl-1 levels and at inducing caspase 3 cleavage
7 | O=C(c1ccccc1O)c1[nH]c(Cl)c(Cl)c1-n1c(C(=O)c2cc(Cl)ccc2O)cc(Cl)c1Cl [compound 48] |  | not active in intact cells | 
8 | O=C(c1ccc(OS(=O)(=O)C(F)(F)F)cc1O)c1[nH]c(Cl)c(Cl)c1-n1c(C(=O)c2ccccc2O)cc(Cl)c1Cl [compound 28] |  |  | fold more potent than 1 against Mcl-1/Bim (Mcl-1/Bim): nine; fold more potent than 1 against Bcl-xL/Bim (Bcl-xL/Bim): eight
9 | CCOC(=O)CSc1ccc(C(=O)c2[nH]c(Cl)c(Cl)c2-n2c(C(=O)c3ccc(SCC(=O)OCC)cc3O)cc(Cl)c2Cl)c(O)c1 [compound 31] |  | little activity in intact cells | 
10 | O=C(c1cc(Cl)c(O)cc1O)c1[nH]c(Cl)c(Cl)c1-n1c(C(=O)c2cc(Cl)c(O)cc2O)cc(Cl)c1Cl [compound 30] |  |  | decrease of Mcl-1 levels and caspase 3 cleavage [1]: inactive at decreasing Mcl-1 levels and at inducing caspase 3 cleavage
11 | O=C(c1ccccc1O)c1[nH]c(Cl)c(Cl)c1-n1c(C(=O)c2c(O)cccc2F)cc(Cl)c1Cl [compound 52] |  | not active in intact cells | 
12 | O=C(c1ccc(SCc2ccccc2)cc1O)c1[nH]c(Cl)c(Cl)c1-n1c(C(=O)c2ccc(SCc3ccccc3)cc2O)cc(Cl)c1Cl [compound 32] |  | little activity in intact cells | 
13 | CCOC(=O)Cn1cc(-c2ccc(C(=O)c3[nH]c(Cl)c(Cl)c3-n3c(C(=O)c4ccc(-c5cn(CC(=O)OCC)nn5)cc4O)cc(Cl)c3Cl)c(O)c2)nn1 [compound 43, Diethyl 2,2′-(4,4′-((4,4′,5,5′-tetrachloro-1′H-1,3′-bipyrrole-2,2′-dicarbonyl)bis(3-hydroxy-4,1-phenylene))bis(1H-1,2,3-triazole-4,1-diyl))diacetate] | 18.4 ± 0.3 |  | 
14 | COc1ccc(CSc2ccc(C(=O)c3[nH]c(Cl)c(Cl)c3-n3c(C(=O)c4ccc(SCc5ccc(OC)cc5)cc4O)cc(Cl)c3Cl)c(O)c2)cc1 [compound 33] |  | little activity in intact cells | 
15 | (4,4′,5,5′-Tetrachloro-1′H-1,3′-bipyrrole-2,2′-diyl)bis((2-hydroxy-4-(1-octyl-1H-1,2,3-triazol-5-yl)phenyl)methanone) [compound 42] | 0.6 ± 0.3 | little activity in intact cells | fold more potent than 1 against Mcl-1/Bim (Mcl-1/Bim): 15 fold; fold more potent than 1 against Bcl-xL/Bim (Bcl-xL/Bim): 33 fold; IC50 (Bcl-xL/Bim): 0.5 ± 0.1 µM
16 | CC(C)(C)OC(=O)Cn1cc(-c2cc(O)c(C(=O)c3[nH]c(Cl)c(Cl)c3-n3c(C(=O)c4cc(Cl)c(-c5cn(CC(=O)OC(C)(C)C)nn5)cc4O)cc(Cl)c3Cl)cc2Cl)nn1 [compound 37, Di-tert-butyl 2,2′-(4,4′-((4,4′,5,5′-tetrachloro-1′H-1,3′-bipyrrole-2,2′-dicarbonyl)bis(2-chloro-5-hydroxy-4,1-phenylene))bis(1H-1,2,3-triazole-4,1-diyl))diacetate] |  | little activity in intact cells | 
17 | C#Cc1ccc(C(=O)c2[nH]c(Cl)c(Cl)c2-n2c(C(=O)c3ccc(C#C)cc3O)cc(Cl)c2Cl)c(O)c1 [compound 25, (4,4′,5,5′-Tetrachloro-1′H-1,3′-bipyrrole-2,2′-diyl)bis((4-ethynyl-2-hydroxyphenyl)methanone)] | 3.9 ± 0.2 |  | IC50 (Bcl-xL/Bim): 5.6 ± 0.5 µM
18 | CCc1ccc(C(=O)c2[nH]c(Cl)c(Cl)c2-n2c(C(=O)c3ccc(CC)cc3O)cc(Cl)c2Cl)c(O)c1 [compound 27, (4,4′,5,5′-Tetrachloro-1′H-1,3′-bipyrrole-2,2′-diyl)bis((4-ethyl-2-hydroxyphenyl)methanone)] | 2.1 ± 0.5 |  | IC50 (Bcl-xL/Bim): 3.9 ± 1.3 µM
19 | O=C(c1ccc(O)cc1O)c1[nH]c(Cl)c(Cl)c1-n1c(C(=O)c2ccc(O)cc2O)cc(Cl)c1Cl [compound 29] |  |  | decrease of Mcl-1 levels and caspase 3 cleavage [1]: inactive at decreasing Mcl-1 levels and at inducing caspase 3 cleavage
